Assay results as given in US10947242B2, “[1,2,4]triazolo[1,5and#8208;A]pyrimidine compounds as PDE2 inhibitors” (Janssen Pharmaceutica NV, priority 2016, dated 2021).
Read-outs that look alike come from different tables or passages of the source.

Experiments:
[1] = molecular target: T1, Human recombinant PDE3A (hPDE3A) (Homo sapiens, UniProt Q14432); assay: In vitro assay PDE3A (SPA, 3H-cAMP hydrolysis); type: biochemical; conditions: for IC50: hPDE3B pIC50, read-out: pIC50 (converted); for Emax: read-out: hPDE3B Emax, read-out: Emax;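 on all read-outs here: the method names PDE3A and the table heading PDE3B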
T1 construct: purchased Scottish Biomedical; host or cells: Sf9 insect cells
T1 sequence (Q14432 whole entry): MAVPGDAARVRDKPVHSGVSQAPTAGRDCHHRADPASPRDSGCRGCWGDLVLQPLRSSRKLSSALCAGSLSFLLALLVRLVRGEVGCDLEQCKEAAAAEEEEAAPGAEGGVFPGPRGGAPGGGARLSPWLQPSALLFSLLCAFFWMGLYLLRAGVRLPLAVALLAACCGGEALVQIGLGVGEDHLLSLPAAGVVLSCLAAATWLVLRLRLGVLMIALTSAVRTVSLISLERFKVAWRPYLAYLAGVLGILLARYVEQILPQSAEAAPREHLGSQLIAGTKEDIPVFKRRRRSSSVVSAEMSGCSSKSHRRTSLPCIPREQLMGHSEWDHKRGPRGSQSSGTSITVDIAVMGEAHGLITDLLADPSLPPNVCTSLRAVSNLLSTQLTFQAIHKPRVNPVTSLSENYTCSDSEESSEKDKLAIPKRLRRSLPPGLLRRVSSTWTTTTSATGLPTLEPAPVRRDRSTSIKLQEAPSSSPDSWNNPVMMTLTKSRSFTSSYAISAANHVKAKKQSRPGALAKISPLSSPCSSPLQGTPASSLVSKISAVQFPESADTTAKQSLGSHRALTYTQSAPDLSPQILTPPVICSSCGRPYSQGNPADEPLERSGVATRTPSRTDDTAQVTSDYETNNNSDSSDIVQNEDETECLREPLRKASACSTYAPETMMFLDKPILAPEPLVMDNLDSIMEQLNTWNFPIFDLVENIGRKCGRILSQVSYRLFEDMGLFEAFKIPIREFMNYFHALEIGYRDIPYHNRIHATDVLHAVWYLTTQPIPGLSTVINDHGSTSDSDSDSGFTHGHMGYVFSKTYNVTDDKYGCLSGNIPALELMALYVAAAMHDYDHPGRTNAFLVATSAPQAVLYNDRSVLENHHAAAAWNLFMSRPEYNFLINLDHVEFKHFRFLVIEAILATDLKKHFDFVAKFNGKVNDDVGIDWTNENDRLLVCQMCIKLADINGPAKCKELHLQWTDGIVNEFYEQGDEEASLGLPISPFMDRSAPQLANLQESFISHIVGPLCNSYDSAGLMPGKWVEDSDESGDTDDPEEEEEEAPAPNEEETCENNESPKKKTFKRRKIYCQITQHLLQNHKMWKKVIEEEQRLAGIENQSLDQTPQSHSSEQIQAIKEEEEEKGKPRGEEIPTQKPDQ
How it was run: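 Human PDE3A, cloned from brain, as partially purified Sf9 lysate. Substrate 0.4 μM cAMP plus [3H]-cAMP (2.4 μCi/ml final) in 50 mM Tris pH 7.8, 8.3 mM MgCl2, 1.7 mM EGTA, 60 min at room temperature, 1% DMSO final. Hydrolysis read by SPA scintillation counting against no-enzyme blanks and DMSO controls.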

[2] = molecular target: T2, Rat recombinant PDE10A (rPDE10A2) (Rattus norvegicus, UniProt Q9QYJ6); assay: In vitro assay PDE10A, rat clone (SPA, 3H-cAMP hydrolysis); type: biochemical; conditions: for IC50: read-out: rPDE10A2 pIC50 (converted)
T2 construct: His tag (inferred from metal chelate purification); made in house; host or cells: Sf9 insect cells (baculovirus)
T2 sequence (Q9QYJ6 1-794): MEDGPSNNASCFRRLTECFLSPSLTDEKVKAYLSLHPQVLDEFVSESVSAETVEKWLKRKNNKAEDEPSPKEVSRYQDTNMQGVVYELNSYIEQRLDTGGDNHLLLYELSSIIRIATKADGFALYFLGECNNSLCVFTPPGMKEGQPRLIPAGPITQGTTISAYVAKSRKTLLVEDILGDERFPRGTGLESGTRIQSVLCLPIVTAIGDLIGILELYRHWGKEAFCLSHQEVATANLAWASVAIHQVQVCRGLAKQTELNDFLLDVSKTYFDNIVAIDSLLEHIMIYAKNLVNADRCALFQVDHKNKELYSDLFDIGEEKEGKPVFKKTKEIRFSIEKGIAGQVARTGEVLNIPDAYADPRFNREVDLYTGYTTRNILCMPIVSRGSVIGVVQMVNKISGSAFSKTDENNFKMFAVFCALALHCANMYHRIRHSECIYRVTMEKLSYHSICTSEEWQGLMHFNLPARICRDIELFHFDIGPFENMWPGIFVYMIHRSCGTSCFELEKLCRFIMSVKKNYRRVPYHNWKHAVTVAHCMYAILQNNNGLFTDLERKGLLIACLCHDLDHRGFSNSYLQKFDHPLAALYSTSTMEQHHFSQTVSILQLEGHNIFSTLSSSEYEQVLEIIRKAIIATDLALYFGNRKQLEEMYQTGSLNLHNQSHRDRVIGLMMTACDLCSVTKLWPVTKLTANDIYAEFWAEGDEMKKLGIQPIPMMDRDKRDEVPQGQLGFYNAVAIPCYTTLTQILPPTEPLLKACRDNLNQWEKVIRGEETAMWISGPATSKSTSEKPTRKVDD
Experimental: Rat recombinant PDE10A (rPDE10A2) was expressed in Sf9 cells using a recombinant rPDE10A baculovirus construct. Cells were harvested after 48 h of infection and the rPDE10A protein was purified by metal chelate chromatography on Ni-sepharose 6FF. Tested compounds were dissolved and diluted in 100% DMSO to a concentration 100 fold of the final concentration in the assay. Human recombinant PDE10A ([…]) was expressed in Sf9 cells using a recombinant hPDE10A baculovirus that was made and amplified in house. Cells were harvested after 72 h of infection and the hPDE10A protein was purified by metal chelate chromatography on Ni-sepharose. Compound dilutions (0.4 μl) were added in 384 well plates to 20 μl of incubation buffer (50 mM Tris pH 7.8, 8.3 mM MgCl2, 1.7 mM EGTA). 10 μl of rPDE10A or hPDE10A enzyme in incubation buffer was added and the reaction was started by addition of 10 μl substrate to a final concentration of 60 nM cAMP and 0.008 μCi ^3H-cAMP. The reaction was incubated for 60 minutes at room temperature. After incubation, the reaction was stopped with 20 μl of stop solution consisting of 17.8 mg/ml PDE SPA (scintillation proximity assay) beads. After sedimentation of the beads during 30 minutes the radioactivity was measured in a Perkin Elmer Topcount scintillation counter and results were expressed as cpm. For blanc values the enzyme was omitted from the reaction and replaced by incubation buffer. Control values were obtained by addition of a final concentration of 1% DMSO instead of compound. A best fit curve is fitted by a minimum sum of squares method to the plot of % of control value subtracted with blanc value versus compound concentration and the half maximal inhibitory concentration (IC50) value is derived from this curve.

[3] = molecular target: T3, Human recombinant PDE2A (hPDE2A) (Homo sapiens, UniProt O00408); assay: In vitro assay PDE2A (SPA, 3H-cGMP hydrolysis); type: biochemical; conditions: for Emax: read-out: hPDE2A Emax
T3 construct: His tag (inferred from metal chelate purification); made in house; host or cells: Sf9 insect cells (baculovirus)
T3 sequence (O00408 whole entry): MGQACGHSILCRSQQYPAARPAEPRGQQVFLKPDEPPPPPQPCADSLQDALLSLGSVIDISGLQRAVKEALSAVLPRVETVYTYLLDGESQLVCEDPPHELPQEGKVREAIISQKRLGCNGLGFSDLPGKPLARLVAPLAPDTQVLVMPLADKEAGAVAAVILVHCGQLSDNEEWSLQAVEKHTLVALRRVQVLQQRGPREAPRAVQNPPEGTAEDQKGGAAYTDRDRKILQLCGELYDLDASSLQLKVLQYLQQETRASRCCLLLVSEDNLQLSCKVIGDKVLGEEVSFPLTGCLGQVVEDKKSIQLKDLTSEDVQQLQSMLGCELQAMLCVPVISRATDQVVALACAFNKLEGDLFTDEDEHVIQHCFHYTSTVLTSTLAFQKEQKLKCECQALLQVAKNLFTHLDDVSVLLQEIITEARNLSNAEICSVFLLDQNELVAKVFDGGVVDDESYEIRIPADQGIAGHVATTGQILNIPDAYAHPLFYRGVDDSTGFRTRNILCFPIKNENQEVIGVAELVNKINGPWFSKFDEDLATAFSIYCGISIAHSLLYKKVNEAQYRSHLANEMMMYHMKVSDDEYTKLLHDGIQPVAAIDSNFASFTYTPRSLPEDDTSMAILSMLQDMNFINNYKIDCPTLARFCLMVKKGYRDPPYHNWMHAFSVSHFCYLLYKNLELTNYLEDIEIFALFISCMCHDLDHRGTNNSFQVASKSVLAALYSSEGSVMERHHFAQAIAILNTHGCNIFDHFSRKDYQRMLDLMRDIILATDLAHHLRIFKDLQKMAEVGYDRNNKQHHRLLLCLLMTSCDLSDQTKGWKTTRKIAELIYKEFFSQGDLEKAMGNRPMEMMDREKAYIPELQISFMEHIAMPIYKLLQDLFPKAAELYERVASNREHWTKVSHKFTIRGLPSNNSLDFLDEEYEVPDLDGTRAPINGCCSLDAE

[4] = molecular target: T4, Human recombinant PDE10A (hPDE10A) (Homo sapiens, UniProt Q9Y233); assay: In vitro assay PDE10A, human clone (SPA, 3H-cAMP hydrolysis); type: biochemical
T4 construct: His tag (inferred from metal chelate purification); made in house; host or cells: Sf9 insect cells (baculovirus)
T4 sequence (Q9Y233 267-1055): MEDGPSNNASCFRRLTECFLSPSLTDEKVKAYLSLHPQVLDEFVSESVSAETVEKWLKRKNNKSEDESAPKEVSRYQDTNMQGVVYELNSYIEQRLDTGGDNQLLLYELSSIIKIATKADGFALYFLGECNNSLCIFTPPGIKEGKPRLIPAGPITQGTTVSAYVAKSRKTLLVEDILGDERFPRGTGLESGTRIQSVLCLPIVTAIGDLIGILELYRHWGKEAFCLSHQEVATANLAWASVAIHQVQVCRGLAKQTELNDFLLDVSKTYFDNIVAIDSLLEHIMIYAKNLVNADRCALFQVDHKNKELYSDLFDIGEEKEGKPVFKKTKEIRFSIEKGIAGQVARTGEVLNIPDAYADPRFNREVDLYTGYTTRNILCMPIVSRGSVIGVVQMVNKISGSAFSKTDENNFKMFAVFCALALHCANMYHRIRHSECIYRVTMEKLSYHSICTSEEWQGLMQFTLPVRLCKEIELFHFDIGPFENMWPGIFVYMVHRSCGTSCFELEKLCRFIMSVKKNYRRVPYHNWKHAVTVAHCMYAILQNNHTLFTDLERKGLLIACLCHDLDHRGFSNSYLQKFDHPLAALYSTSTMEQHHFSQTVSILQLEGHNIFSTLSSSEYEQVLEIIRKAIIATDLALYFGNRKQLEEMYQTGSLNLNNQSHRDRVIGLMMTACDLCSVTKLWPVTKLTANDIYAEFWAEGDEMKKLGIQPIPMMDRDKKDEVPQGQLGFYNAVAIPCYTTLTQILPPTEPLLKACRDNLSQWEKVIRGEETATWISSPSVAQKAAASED
How it was run: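 Human recombinant PDE10A was expressed in Sf9 cells via baculovirus and incubated with compound in 50 mM Tris pH 7.8, 8.3 mM MgCl2, 1.7 mM EGTA. Substrate was 60 nM cAMP plus 0.008 μCi 3H-cAMP for 60 min at room temperature, read by SPA scintillation counting. Controls used 1% DMSO, and blanks omitted enzyme.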

[5] = molecular target: T5, PDE2A (Rattus norvegicus, UniProt Q01062); assay: PDE2 occupancy by test compounds, ex-vivo autoradiography with [3H]B-17a; type: in vivo, Male Wistar rats; conditions: for receptor occupancy at 10 mg/kg: route PO (oral), percentage receptor occupancy, ex-vivo autoradiography, striatum
T5 construct: Twenty μm-thick striatal sections were cut; from tissue; host or cells: rat brain, striatal sections
T5 sequence (Q01062 1-928): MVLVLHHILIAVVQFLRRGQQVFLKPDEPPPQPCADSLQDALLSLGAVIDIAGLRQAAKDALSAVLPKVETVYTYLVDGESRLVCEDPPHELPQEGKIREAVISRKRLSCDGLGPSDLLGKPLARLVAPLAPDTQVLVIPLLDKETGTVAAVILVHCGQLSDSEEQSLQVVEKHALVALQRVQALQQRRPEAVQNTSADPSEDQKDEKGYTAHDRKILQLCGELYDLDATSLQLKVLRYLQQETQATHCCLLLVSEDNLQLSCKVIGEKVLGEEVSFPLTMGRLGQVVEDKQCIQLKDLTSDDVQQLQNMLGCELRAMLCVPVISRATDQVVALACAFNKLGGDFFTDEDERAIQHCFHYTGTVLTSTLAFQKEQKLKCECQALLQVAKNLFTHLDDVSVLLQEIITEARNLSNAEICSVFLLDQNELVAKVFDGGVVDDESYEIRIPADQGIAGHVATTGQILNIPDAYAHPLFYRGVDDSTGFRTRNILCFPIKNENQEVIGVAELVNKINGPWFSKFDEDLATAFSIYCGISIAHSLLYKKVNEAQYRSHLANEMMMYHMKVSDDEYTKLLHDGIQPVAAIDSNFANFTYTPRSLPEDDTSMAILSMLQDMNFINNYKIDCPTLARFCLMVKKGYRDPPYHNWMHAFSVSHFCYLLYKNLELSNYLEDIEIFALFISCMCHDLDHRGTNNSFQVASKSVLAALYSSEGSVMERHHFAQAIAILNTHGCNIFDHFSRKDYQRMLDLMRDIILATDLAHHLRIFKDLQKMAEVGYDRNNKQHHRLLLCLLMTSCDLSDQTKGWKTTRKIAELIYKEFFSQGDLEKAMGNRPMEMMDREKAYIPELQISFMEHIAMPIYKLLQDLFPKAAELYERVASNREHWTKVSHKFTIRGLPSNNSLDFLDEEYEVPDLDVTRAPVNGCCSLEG

[6] = human recombinant PDE2A, 10 μM cGMP substrate, read-out: hPDE2A pIC50 (converted)
[7] = read-out: hPDE2A pIC50 (converted)
[8] = human clone (h), default, read-out: hPDE10A2 Emax
[9] = human clone (h), default, read-out: hPDE10A2 pIC50 (converted)
[10] = human clone by default (no (r) mark), read-out: hPDE10A2 or rPDE10A2 Emax
[11] = human clone by default (no (r) mark), read-out: hPDE10A2 or rPDE10A2 pIC50 (converted)

| Compound | melting point [°C] | IC50 [1] [nM] | Emax [1] [%] | Emax ([2]; rat clone (r)) [%] | IC50 ([2]; rat clone (r)) [nM] | rPDE10A2 pIC50 ([2]; rat clone, indicated as (r)) | IC50 [3, 6] [nM] | Emax ([3]; human recombinant PDE2A) [%] | Emax [3] [%] | IC50 [3, 7] [nM] | Emax [4, 10] [%] | IC50 [4, 11] [nM] | receptor occupancy at 10 mg/kg [5] [%] | further results |
| --- | --- | --- | --- | --- | --- | --- | --- | --- | --- | --- | --- | --- | --- | --- |
| CC(=O)N1CCc2cc(C(=O)N3CCC[C@@](C)(c4cc(C(F)F)nc5ncnn45)C3)ccc21 (single isomer, unassigned) [Compound 203] | 204.03 | > 10000 | 41 | 14 | > 10000 | <5 (r) | 955 | 48 | 48 | 955 |  |  |  |  |
| C[C@@H]1CCN(C(=O)c2ccc3nccn3c2)C[C@H]1c1cc(C(F)F)nc2ncnn12 [Compound 40] | 181.11 | 7080 | 58 |  |  |  | 0.355 | 101 | 101 | 0.355 |  |  |  | rPDE10A2 pIC50 ([2]; rat clone (r)): 7.1 (r); Emax ([2]; rat clone, indicated as (r)): 96%; IC50 ([2]; rat clone, indicated as (r)): 79.4 nM; Emax [4, 8]: 97%; IC50 [4, 9]: 123 nM |
| C[C@@H]1CCN(C(=O)c2ccc3occc3c2)C[C@H]1c1cc(C(F)F)nc2ncnn12 [Compound 97] |  |  |  | 99 | 34.7 | 7.46 (r) |  |  |  |  |  |  |  | Emax [4, 8]: 101%; IC50 [4, 9]: 53.7 nM |
| CC1(c2cc(C(F)F)nc3ncnn23)CCCN(C(=O)c2ccc3occc3c2)C1 (stereo not drawn) [Compound 201] | 140.14 | > 10000 | 24 | -1 | 3090 | 5.51 (r) | 646 | 61 | 61 | 646 |  |  |  |  |
| C[C@@H]1CCN(C(=O)c2ccc3ncc(F)cc3c2)C[C@H]1c1cc(C(F)F)nc2ncnn12 [Compound 332] | 183.18 | 1200 | 90 |  |  |  |  |  | 99 | 4.79 | 98 | 30.9 |  | receptor occupancy at 10 mg/kg ([5]; po): 8% |
| C[C@@H]1CCN(C(=O)c2cc(Cl)cc(Cl)c2)C[C@H]1c1cc(C(F)F)nc2ncnn12 [Compound 334] | 239.87 | 2340 | 84 |  |  |  |  |  | 100 |  | 98 | 100 |  | IC50 ([3]; hPDE2A pIC50): 2.45 nM; receptor occupancy at 10 mg/kg ([5]; po): 17% |
| O=C(c1ccc2occc2c1)N1[C@H]2CC[C@H](c3cc(C(F)F)nc4ncnn34)[C@@H]1CC2 [Compound 353] | 230.66 | 4790 | 69 |  |  |  |  |  | 99 | 3.39 | 94 | 977 | 15 |  |
| O=C(c1ccc(Cl)c(Cl)c1)N1[C@H]2CC[C@H](c3cc(C(F)F)nc4ncnn34)[C@@H]1CC2 [Compound 356] | 187.93 | 5890 | 65 |  |  |  |  |  | 99 | 5.37 | 92 | 933 | 51 | ED50 ([5]; po, read-out: PDE Occupancy ED50): 5.55 mg/kg |
| CCn1ccc2cc(C(=O)N3[C@H]4CC[C@H](c5cc(C(F)F)nc6ncnn56)[C@@H]3CC4)ccc21 [Compound 363] | 221.75 | 617 | 97 |  |  |  |  |  | 99 | 0.275 | 98 | 178 | -11 |  |
